{"source": "patent US20090055945A1", "about": "“Method for Producing Nuclear-Transplanted Egg” (priority 2005, published 2009)", "key": {"[1]": {"tested_on": "oocytes into which nuclei from fibroblasts were transferred", "experiment": "Expanded blastocyst formation, fibroblasts as donor cells", "format": "cell-based, mouse", "settings": "fibroblast donor nuclei; 50 nM TSA for 20 hours; FIG. 8", "protocol": "A procedure similar to that described in Example 1 was carried out using fibroblasts or embryonic stem cells (ES cells) as donor cells in place of cumulus cells. Fibroblasts were obtained by culturing a fragment of mouse tail (Non-patent Document 11). E14 cells were used as ES cells (Non-patent Document 12).\nOocytes into which nuclei from the donor cells were transferred were treated with TSA for 20 hours, and cultured in KSOM medium without TSA until 96 hours after the initiation of activation. Then, development into expanded blastocysts was observed and the blastocyst formation rate was determined. 30 or more embryos were examined in each of the experimental groups of the respective cells."}, "nuclear transfer embryos": {"tested_on": "nuclear transfer embryos", "experiment": "Birth rate of cloned mice after implantation of treated nuclear transfer embryos", "format": "in vivo, mouse", "protocol": "Based on the results of Example 3, the effect of the TSA treatment on the fetus birth rate was examined. […] after the initiation of activation and transferred to KSOM medium without TSA, and the nuclear transfer embryos transferred to KSOM medium without TSA were cultured in this medium until implantation. For producing cloned mice, embryos at the 2-cell stage were implanted into oviducts of pseudopregnant mice (surrogate mothers, day 0.5) on the day after the nuclear transfer. The pseudopregnancy treatment was carried out by mating a ICR female mouse (in estrus) with an ICR vasectomized male mouse on a one-to-one basis. The successful mating was confirmed based on the presence of plug formation. Cloned mice were delivered by cesarean section 19 days after the embryo transfer into oviduct. The ratio of the number of born cloned mouse fetuses to the number of implanted embryos (birth rate) was determined. Cloned mouse fetuses and placentas immediately after birth (left), and cloned mice (black) and a surrogate mother (white) after three weeks (right) are shown in FIG. 6."}, "[2]": {"tested_on": "oocytes after fertilization", "settings": "treatment of oocytes after fertilization; Non-patent Document 3; cited from earlier work"}, "[3]": {"tested_on": "oocytes injected with nuclear domains of round spermatids", "experiment": "Birth rate after round spermatid injection (ROSI)", "format": "in vivo, mouse", "protocol": "The effect of the TSA treatment according to the present invention on round spermatid injection (ROSI) was examined. ROSI was carried out according to the method as described in Non-patent Document 13.\nBriefly, human choriogonadotropin (hCG) was first administered to female B6D2F1 mice (Japan SLC). Oocytes were collected after 16 hours and placed in a CZB medium. The oocytes were then transferred to a KSOM medium and incubated at 37° C. under 5% CO2.\nThe oocytes were activated by incubation in Ca^2+-free CZB medium supplemented with 5 mM strontium chloride (SrCl2) for 20 minutes. After 40 to 80 minutes, the oocytes were injected with the nuclear domains of round spermatids (characterized by diameters of about 10 μm and centrally located distinct nucleoli; see Non-patent Document 14) collected from a male C57BL/6 mouse (Japan SLC).\nThe oocytes injected with nuclei were transferred to KSOM medium containing 5 nM TSA, and further transferred to KSOM medium without TSA 10 hours after the initiation of activation.\nEmbryos at the 2-cell stage were implanted into oviducts of pseudopregnant mice (surrogate mothers, day 0.5) on the day after the spermatid injection. Fetuses were obtained by cesarean section 19 days after the embryo implantation. The ratio of the number of born fetuses to the number of implanted embryos (birth rate) was determined."}}}
{"compound": "CC(/C=C/C(=O)NO)=C\\[C@@H](C)C(=O)c1ccc(N(C)C)cc1", "note": "[TSA, trichostatin A]", "values": [{"measurement": "blastocyst development rate compared with the case without TSA", "setting": "[1]", "value": "higher"}, {"measurement": "Birth rate (%)", "setting": "nuclear transfer embryos; TSA 5 nM, treatment time 10 h", "value": 6.2, "unit": "%"}, {"measurement": "Number of born fetuses", "setting": "nuclear transfer embryos; TSA 5 nM, treatment time 10 h, 289 implanted embryos", "value": 18}, {"measurement": "Birth rate (%)", "setting": "nuclear transfer embryos; TSA 5 nM, treatment time 20 h", "value": 3.2, "unit": "%"}, {"measurement": "Number of born fetuses", "setting": "nuclear transfer embryos; TSA 5 nM, treatment time 20 h, 274 implanted embryos", "value": 9}, {"measurement": "Birth rate (%)", "setting": "nuclear transfer embryos; TSA 50 nM, treatment time 10 h", "value": 7.7, "unit": "%"}, {"measurement": "Number of born fetuses", "setting": "nuclear transfer embryos; TSA 50 nM, treatment time 10 h, 91 implanted embryos", "value": 7}, {"measurement": "Birth rate (%)", "setting": "nuclear transfer embryos; TSA 50 nM, treatment time 20 h", "value": 2.5, "unit": "%"}, {"measurement": "Number of born fetuses", "setting": "nuclear transfer embryos; TSA 50 nM, treatment time 20 h, 81 implanted embryos", "value": 2}, {"measurement": "birth rate vs control", "setting": "nuclear transfer embryos; TSA treatment for 10 hours or 20 hours", "value": "increased"}, {"measurement": "development rate", "setting": "[2]", "value": "reduced"}, {"measurement": "increase in birth rate vs control without TSA", "setting": "[3]; TSA 5 nM", "value": "about 4 fold"}, {"measurement": "Birth rate (%)", "setting": "[3]; TSA 5 nM until 10 hours after initiation of activation", "value": 26.3, "unit": "%"}, {"measurement": "Birth number", "setting": "[3]; TSA 5 nM until 10 hours after initiation of activation, 38 implanted embryos", "value": 10}]}
